biological target: T1, Human Factor D (Homo sapiens, UniProt P00746); assay: Human Factor D assay (Z-L-Lys-SBzl/DTNB, absorbance at 405 nm); assay type: biochemical; details: not given
T1 construct: purified from human serum; purchased Complement Technology, Inc; host or cells: human serum (natural protein, not recombinant)
Method: Example 44. Human Factor D Assay
Human Factor D (purified from human serum, Complement Technology, Inc.) at 80 nM final concentration was incubated with test compound at various concentrations for 5 minutes at room temperature in 50 mM Tris, 1M NaCl, pH 7.5. A synthetic substrate Z-L-Lys-SBzl and DTNB (Ellman's reagent) are added to final concentrations of 100 µM each. Absorbance at 405 nm (A405) was recorded at 30 second intervals for 30 minutes using a microplate spectrophotometer. IC50 values are calculated by nonlinear regression of complement Factor D reaction rates as a function of test compound concentration.

T1 sequence (P00746 26-253): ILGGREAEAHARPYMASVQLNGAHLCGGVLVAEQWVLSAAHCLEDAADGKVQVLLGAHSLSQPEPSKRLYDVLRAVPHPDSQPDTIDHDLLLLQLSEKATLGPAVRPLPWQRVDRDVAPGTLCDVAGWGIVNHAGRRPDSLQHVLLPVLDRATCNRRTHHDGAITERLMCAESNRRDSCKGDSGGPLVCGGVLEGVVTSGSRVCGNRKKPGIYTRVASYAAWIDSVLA

Structure (SMILES)	IC50
CC(=O)c1cn(CC(=O)N2[C@@H]3CCC[C@@H]3C[C@H]2C(=O)NCc2cccc(Cl)c2F)c2cc(P(=O)(O)O)ccc12 [Compound 7, 3-acetyl-1-(2-((2S,3aR,6aR)-2-(3-chloro-2-fluorobenzylcarbamoyl)hexahydrocyclopenta [b]pyrrol-1(2H)-yl)-2-oxoethyl)-1H-indol-6-ylphosphonic acid]	< 1 µM

same assay, conditions: Table 1; Human Factor D 80 nM, purified from human serum; substrate Z-L-Lys-SBzl; read-out: IC50

Structure (SMILES)	IC50
CCOP(=O)(OCC)c1ccc2c(C(=O)OC)cn(CC(=O)N3C[C@H](F)C[C@H]3C(=O)NCc3cccc(Cl)c3F)c2c1 [Compound 13, methyl 1-(2-((2S,4R)-2-(3-chloro-2-fluorobenzylcarbamoyl)-4-fluoropyrrolidin-1-yl)-2-oxoethyl)-6-(diethoxyphosphoryl)-1H-indole-3-carboxylate]	< 1 µM
CC(=O)c1cn(CC(=O)N2C[C@H](F)C[C@H]2C(=O)NCc2cccc(Cl)c2F)c2ccc(P(=O)(O)O)cc12 [Compound 10, 3-acetyl-1-(2-((2S,4R)-2-(3-chloro-2-fluorobenzylcarbamoyl)-4-fluoropyrrolidin-1-yl)-2-oxoethyl)-1H-indol-5-ylphosphonic acid]	< 1 µM
CCOP(=O)(OCC)c1ccc2c(C(=O)O)nn(CC(=O)N3C[C@H](F)C[C@H]3C(=O)NCc3cccc(Cl)c3F)c2c1 [Compound 12, 1-(2-((2S,4R)-2-(3-chloro-2-fluorobenzylcarbamoyl)-4-fluoropyrrolidin-1-yl)-2-oxoethyl)-6-(diethoxyphosphoryl)-1H-indazole-3-carboxylic acid]	> 10 µM
CC(=O)c1cn(CC(=O)N2C[C@H](F)C[C@H]2C(=O)NCc2cccc(Cl)c2F)c2cc(P(=O)(OCOC(=O)C(C)(C)C)OCOC(=O)C(C)(C)C)ccc12 [Compound 26, ((3-acetyl-1-(2-((2S,4R)-2-(3-chloro-2-fluorobenzylcarbamoyl)-4-fluoropyrrolidin-1-yl)-2-oxoethyl)-1H-indol-6-yl)phosphoryl)bis(oxy)bis (methylene) bis(2,2-dimethylpropanoate)]	< 1 µM
CC(=O)c1cn(CC(=O)N2C[C@H](F)C[C@H]2C(=O)NCc2cccc(Cl)c2F)c2cc(P(=O)(OCC(F)(F)F)OCC(F)(F)F)ccc12 [Compound 19, bis(2,2,2-trifluoroethyl) 3-acetyl-1-(2-((2S,4R)-2-(3-chloro-2-fluorobenzylcarbamoyl)-4-fluoropyrrolidin-1-yl)-2-oxoethyl)-1H-indol-6-ylphosphonate]	< 1 µM
CCOC(=O)c1nn(CC(=O)N2C[C@H](F)C[C@H]2C(=O)NCc2cccc(Cl)c2F)c2cc(P(=O)(OCC)OCC)ccc12 [Compound 11, ethyl 1-(2-((2S,4R)-2-(3-chloro-2-fluorobenzylcarbamoyl)-4-fluoropyrrolidin-1-yl)-2-oxoethyl)-6-(diethoxyphosphoryl)-1H-indazole-3-carboxylate]	> 10 µM
CCOP(=O)(c1ccccc1)c1ccc2c(C(C)=O)cn(CC(=O)N3C[C@H](F)C[C@H]3C(=O)NCc3cccc(Cl)c3F)c2c1 (stereo partly drawn) [Compound 23, ethyl 3-acetyl-1-(2-((2S,4R)-2-(3-chloro-2-fluorobenzylcarbamoyl)-4-fluoropyrrolidin-1-yl)-2-oxoethyl)-1H-indol-6-yl(phenyl)phosphinate]	< 1 µM
CCOP(=O)(O)c1ccc2c(c1)c(C(C)=O)cn2CC(=O)N1C[C@H](F)C[C@H]1C(=O)NCc1cccc(Cl)c1F [Compound 9, ethyl hydrogen 3-acetyl-1-(2-((2S,4R)-2-(3-chloro-2-fluorobenzylcarbamoyl)-4-fluoropyrrolidin-1-yl)-2-oxoethyl)-1H-indol-5-ylphosphonate]	> 10 µM
CCOP(=O)(CC)c1ccc2c(C(C)=O)cn(CC(=O)N3C[C@H](F)C[C@H]3C(=O)NCc3cccc(Cl)c3F)c2c1 (stereo partly drawn) [Compound 24, ethyl 3-acetyl-1-(2-((2S,4R)-2-(3-chloro-2-fluorobenzylcarbamoyl)-4-fluoropyrrolidin-1-yl)-2-oxoethyl)-1H-indol-6-yl(ethyl)phosphinate]	< 1 µM
CC(=O)c1cn(CC(=O)N2C[C@H](F)C[C@H]2C(=O)NCc2cccc(Cl)c2F)c2cc(P(=O)(O)O)c(F)cc12 [Compound 31, 3-acetyl-1-(2-((2S,4R)-2-(3-chloro-2-fluorobenzylcarbamoyl)-4-fluoropyrrolidin-1-yl)-2-oxoethyl)-5-fluoro-1H-indol-6-ylphosphonic acid]	< 1 µM

same assay, conditions: Table 3; Human Factor D 80 nM, purified from human serum; substrate Z-L-Lys-SBzl; read-out: IC50 (Stars)

Structure (SMILES)	IC50
CCOP(=O)(OCC)c1nc2c(s1)c(C(N)=O)nn2CC(=O)N1C[C@H](F)C[C@H]1C(=S)NC1CCC(c2cc3sccc3s2)C1 (some centres unmarked) [Compound 148]	> 10 µM
CCOP(=O)(OCC)c1ccc2c(c1)c(C(C)=O)cn2CC(=O)N1C[C@H](F)C[C@H]1C(=O)NCCCc1ccccc1 [Compound 82, diethyl (3-acetyl-1-(2-((2S,4R)-4-fluoro-2-((3-phenylpropyl)carbamoyl)pyrrolidin-1-yl)-2-oxoethyl)-1H-indol-5-yl)phosphonate]	> 10 µM
CCOP(=O)(OCC)c1nc2c(s1)c(C(N)=O)nn2CC(=O)N1[C@@H]2C[C@@H]2C[C@H]1C(=O)Nc1cccc(-c2cc(C(C)=O)ccc2Cl)c1F [Compound 104, diethyl (1-(2-((1R,3S,5R)-3-((5′-acetyl-2′-chloro-2-fIuoro-[1,1′-biphenyl]-3-yl)carbamoyl)-2-azabicyclo[3.1.0]hexan-2-yl)-2-oxoethyl)-3-carbamoyl-1H-pyrazolo[3,4-d]thiazol-5-yl)phosphonate]	< 1 µM
CC(=O)c1cn(CC(=O)N2C[C@H](F)C[C@H]2C(=O)NCCc2ccccc2)c2ccc(P(=O)(O)O)cc12 [Compound 79, (3-acetyl-1-(2-((2S,4R)-4-fluoro-2-(phenethylcarbamoyl)pyrrolidin-1-yl)-2-oxoethyl)-1H-indol-5-yl)phosphonic acid]	> 10 µM
CC(=O)c1nn(CC(=O)N2C[C@H](F)C[C@H]2C(=O)Nc2cccc(Br)n2)c2cc(P(=O)(O)O)ccc12 [Compound 105, (3-acetyl-1-(2-((2S,4R)-2-((6-bromopyridin-2-yl)carbamoyl)-4-fluoropyrrolidin-1-yl)-2-oxoethyl)-1H-indazol-6-yl)phosphonic acid]	< 1 µM
CCOP(=O)(OCC)c1ccc2c(c1)c(C(C)=O)cn2CC(=O)N1CC[C@H]1C(=O)Nc1cccc(C)n1 [Compound 100, (S)-diethyl (3-acetyl-1-(2-(2-((6-methylpyridin-2-yl)carbamoyl)azetidin-1-yl)-2-oxoethyl)-1H-indol-5-yl)phosphonate]	> 10 µM
Cc1cccc(NC(=O)[C@@H]2[C@H]3CC[C@H](C3)N2C(=O)Cn2cc(C(N)=O)c3cc(P(=O)(O)O)ccc32)n1 [Compound 103, (3-carbamoyl-1-(2-((1R,3S,4S)-3-((6-methylpyridin-2-yl)carbamoyl)-2-azabicyclo[2.2.1]heptan-2-yl)-2-oxoethyl)-1H-indol-5-yl)phosphonic acid]	> 10 µM
CCOP(=O)(OCC)c1ccc2c(c1)c(C(N)=O)cn2CC(=O)N1[C@@H]2CC[C@@H](C2)[C@H]1C(=O)Nc1cccc(C)n1 [Compound 102, diethyl (3-carbamoyl-1-(2-((1R,3S,4S)-3-((6-methylpyridin-2-yl)carbamoyl)-2-azabicyclo[2.2.1]heptan-2-yl)-2-oxoethyl)-1H-indol-5-yl)phosphonate]	> 10 µM
CCOP(=O)(OCC)c1ccc2c(c1)c(C(C)=O)cn2CC(=O)N1C[C@H](F)C[C@H]1C(=O)NCCCCc1ccccc1 [Compound 86, diethyl (3-acetyl-1-(2-((2S,4R)-4-fluoro-2-((4-phenylbutyl)carbamoyl)pyrrolidin-1-yl)-2-oxoethyl)-1H-indol-5-yl)phosphonate]	> 10 µM

From patent publication US10000516B2 (priority 2015, dated 2018)
